Reference: ChEMBL document CHEMBL5390317, “Novel Indane-Containing NBTIs with Potent Anti-Gram-Negative Activity and Minimal hERG Inhibition” (ACS Med Chem Lett, 2023)
Converted amounts (≈) assume the structure as drawn.

Tests used:
[1] = system: Acinetobacter baumannii; test: Antibacterial activity against Acinetobacter baumannii ATCC BAA-747 assessed as inhibition in bacterial growth incubated for 20 to 24 hrs by CLSI based broth microdilution method; format: functional; details: Acinetobacter baumannii, ATCC BAA-747, time 20-24 hrs; read-out: MIC
[2] = Lipophilicity, log D of compound at pH 7.4; format: physicochemical; details: buffer
[3] = system: Escherichia coli; test: Antibacterial activity against Escherichia coli K-12 BW25113 assessed as inhibition in bacterial growth incubated for 20 to 24 hrs by CLSI based broth microdilution method; format: functional; details: Escherichia coli, K-12 BW25113, time 20-24 hrs; read-out: MIC
[4] = system: Escherichia coli; test: Antibacterial activity against Escherichia coli ATCC BAA-2340 assessed as inhibition in bacterial growth incubated for 20 to 24 hrs by CLSI based broth microdilution method; format: functional; details: Escherichia coli, ATCC BAA-2340, time 20-24 hrs; read-out: MIC
[5] = system: Escherichia coli; test: Antibacterial activity against Escherichia coli K-12 BW25113 deltaTolC assessed as inhibition in bacterial growth incubated for 20 to 24 hrs by CLSI based broth microdilution method; format: functional; details: time 20-24 hrs
[6] = system: Escherichia coli; test: Antibacterial activity against Escherichia coli ATCC 25922 assessed as inhibition in bacterial growth incubated for 20 to 24 hrs by CLSI based broth microdilution method; format: functional; details: time 20-24 hrs
[7] = system: Staphylococcus aureus; test: Antibacterial activity against Staphylococcus aureus ATCC BAA-1556 assessed as inhibition in bacterial growth incubated for 20 to 24 hrs by CLSI based broth microdilution method; format: functional; details: Staphylococcus aureus, ATCC BAA-1556, time 20-24 hrs; read-out: MIC
[8] = system: Klebsiella pneumoniae; test: Antibacterial activity against Klebsiella pneumoniae ATCC BAA-1705 assessed as inhibition in bacterial growth incubated for 20 to 24 hrs by CLSI based broth microdilution method; format: functional; details: time 20-24 hrs
[9] = system: Klebsiella pneumoniae; test: Antibacterial activity against Klebsiella pneumoniae ATCC 10031 assessed as inhibition in bacterial growth incubated for 20 to 24 hrs by CLSI based broth microdilution method; format: functional; details: time 20-24 hrs
[10] = system: Pseudomonas aeruginosa; test: Antibacterial activity against Pseudomonas aeruginosa NCTC 11451 assessed as inhibition in bacterial growth incubated for 20 to 24 hrs by CLSI based broth microdilution method; format: functional; details: Pseudomonas aeruginosa, NCTC 11451, time 20-24 hrs; read-out: MIC
[11] = system: Pseudomonas aeruginosa; test: Antibacterial activity against Pseudomonas aeruginosa NCTC 13437 assessed as inhibition in bacterial growth incubated for 20 to 24 hrs by CLSI based broth microdilution method; format: functional; details: Pseudomonas aeruginosa, NCTC 13437, time 20-24 hrs; read-out: MIC
[12] = system: Klebsiella pneumoniae; test: Antibacterial activity against Klebsiella pneumoniae ATCC 700603 assessed as inhibition in bacterial growth incubated for 20 to 24 hrs by CLSI based broth microdilution method; format: functional; details: Klebsiella pneumoniae, ATCC 700603, time 20-24 hrs; read-out: MIC
[13] = system: Klebsiella pneumoniae; test: Antibacterial activity against Klebsiella pneumoniae ATCC BAA-2146 assessed as inhibition in bacterial growth incubated for 20 to 24 hrs by CLSI based broth microdilution method; format: functional; details: Klebsiella pneumoniae, ATCC BAA-2146, time 20-24 hrs; read-out: MIC
[14] = Inhibition of Escherichia coli topoisomerase 4 incubated for 120 mins by Transcreener ADP2 FI assay
[15] = system: Pseudomonas aeruginosa; test: Antibacterial activity against Pseudomonas aeruginosa ATCC 27853 assessed as inhibition in bacterial growth incubated for 20 to 24 hrs by CLSI based broth microdilution method; format: functional; details: time 20-24 hrs
[16] = target: DNA gyrase (Escherichia coli, UniProt P0AES4+P0AES6); test: Inhibition of Escherichia coli DNA gyrase incubated for 80 mins by Transcreener ADP2 FI assay; format: protein-complex assay
[17] = system: Staphylococcus aureus; test: Antibacterial activity against Staphylococcus aureus ATCC 29213 assessed as inhibition in bacterial growth incubated for 20 to 24 hrs by CLSI based broth microdilution method; format: functional; details: Staphylococcus aureus, ATCC 29213; time 20-24 hrs; read-out: MIC
[18] = system: Acinetobacter baumannii; test: Antibacterial activity against Acinetobacter baumannii ATCC 19606 assessed as inhibition in bacterial growth incubated for 20 to 24 hrs by CLSI based broth microdilution method; format: functional; details: time 20-24 hrs
[19] = system: Escherichia coli; test: Antibacterial activity against Escherichia coli ATCC 35218 assessed as inhibition in bacterial growth incubated for 20 to 24 hrs by CLSI based broth microdilution method; format: functional; details: Escherichia coli, ATCC 35218, time 20-24 hrs; read-out: MIC
[20] = system: Acinetobacter baumannii; test: Antibacterial activity against Acinetobacter baumannii ATCC 51432 assessed as inhibition in bacterial growth incubated for 20 to 24 hrs by CLSI based broth microdilution method; format: functional; details: Acinetobacter baumannii, ATCC 51432, time 20-24 hrs; read-out: MIC
[21] = target: T1, hERG (KCNH2) (Homo sapiens, UniProt Q12809); test: Inhibition of hERG potassium channel expressed in CHO cells at 1 uM by electrophysiological patch clamp assay relative to control; format: toxicity, cell-based; details: CHO cells expressing hERG
T1 sequence (Q12809 whole entry): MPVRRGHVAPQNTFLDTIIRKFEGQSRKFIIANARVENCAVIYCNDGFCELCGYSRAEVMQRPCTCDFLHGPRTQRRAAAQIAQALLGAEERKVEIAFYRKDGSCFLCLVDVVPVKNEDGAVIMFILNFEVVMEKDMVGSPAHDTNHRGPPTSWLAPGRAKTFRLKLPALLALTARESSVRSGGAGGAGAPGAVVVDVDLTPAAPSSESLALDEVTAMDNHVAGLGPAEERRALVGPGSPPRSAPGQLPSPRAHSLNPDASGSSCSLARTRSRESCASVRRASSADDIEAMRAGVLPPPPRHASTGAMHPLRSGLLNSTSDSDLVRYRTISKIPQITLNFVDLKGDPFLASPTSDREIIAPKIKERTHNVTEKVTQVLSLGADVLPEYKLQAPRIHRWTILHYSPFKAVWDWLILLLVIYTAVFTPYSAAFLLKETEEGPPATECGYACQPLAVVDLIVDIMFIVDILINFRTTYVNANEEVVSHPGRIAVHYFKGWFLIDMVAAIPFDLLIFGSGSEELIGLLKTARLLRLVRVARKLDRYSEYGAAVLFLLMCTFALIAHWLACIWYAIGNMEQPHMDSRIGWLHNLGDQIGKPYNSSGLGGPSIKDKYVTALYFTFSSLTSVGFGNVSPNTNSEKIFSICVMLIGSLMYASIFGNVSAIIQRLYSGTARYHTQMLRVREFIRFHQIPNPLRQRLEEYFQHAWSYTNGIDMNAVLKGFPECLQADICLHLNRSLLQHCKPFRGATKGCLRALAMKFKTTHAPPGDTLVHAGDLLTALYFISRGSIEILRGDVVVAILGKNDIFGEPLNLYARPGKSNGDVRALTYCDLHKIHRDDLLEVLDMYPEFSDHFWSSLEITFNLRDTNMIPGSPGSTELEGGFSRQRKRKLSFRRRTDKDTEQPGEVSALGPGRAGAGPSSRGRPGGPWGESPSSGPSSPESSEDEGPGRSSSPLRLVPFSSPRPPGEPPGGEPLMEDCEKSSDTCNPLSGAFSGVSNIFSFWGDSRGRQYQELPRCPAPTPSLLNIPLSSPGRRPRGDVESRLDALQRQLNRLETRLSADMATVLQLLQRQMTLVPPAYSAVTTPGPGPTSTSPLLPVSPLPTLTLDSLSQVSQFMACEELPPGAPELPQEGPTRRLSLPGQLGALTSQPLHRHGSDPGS

[22] = target: T1, hERG (KCNH2); test: Inhibition of hERG potassium channel expressed in CHO cells at 10 uM by electrophysiological patch clamp assay relative to control; format: toxicity, cell-based; details: CHO cells expressing hERG
[23] = target: T1, hERG (KCNH2); test: (§1) Inhibition of hERG potassium channel expressed in CHO cells by electrophysiological patch clamp assay; format: toxicity, cell-based; details: human, CHO cells expressing hERG
[24] = target: Voltage-gated inwardly rectifying potassium channel KCNH2 (Homo sapiens, UniProt Q12809); test: as §1; format: toxicity, cell-based
Chain of Voltage-gated inwardly rectifying potassium channel KCNH2 (Q12809 whole entry): as above

[25] = Stability in mouse plasma assessed as parent compound remaining after 5 hrs relative to control; format: ADME, cell-free; details: read-out: Stability
[26] = Stability in mouse plasma; format: ADME, cell-free
[27] = Stability in rat plasma; format: ADME, cell-free
[28] = Stability in human plasma; format: ADME, cell-free

| MIC [1] [mg/L] | MIC [3] [mg/L] | MIC [4] [mg/L] | MIC [5] [mg/L] | MIC [6] [mg/L] | MIC [7] [mg/L] | MIC [8] [mg/L] | MIC [9] [mg/L] | MIC [10] [mg/L] | MIC [11] [mg/L] | MIC [12] [mg/L] | MIC [13] [mg/L] | IC50 [14] [µM] | MIC [15] [mg/L] | IC50 [16] [µM] | MIC [17] [mg/L] | MIC [18] [mg/L] | MIC [19] [mg/L] | MIC [20] [mg/L] | Compound | inhibition at 1 µM [21] [%] | also measured |
| --- | --- | --- | --- | --- | --- | --- | --- | --- | --- | --- | --- | --- | --- | --- | --- | --- | --- | --- | --- | --- | --- |
| 4 (≈ 7.93 µM) | 0.125 (≈ 0.248 µM) | 0.5 (≈ 0.991 µM) | ≤ 0.06 | 0.5 (≈ 0.991 µM) | 0.5 (≈ 0.991 µM) | 4 (≈ 7.93 µM) | ≤ 0.06 | 1 (≈ 1.98 µM) | 0.5 (≈ 0.991 µM) | 4 (≈ 7.93 µM) | 8 (≈ 15.9 µM) | 0.029 | 0.125 (≈ 0.248 µM) | 0.051 | ≤ 0.06 | 8 (≈ 15.9 µM) | 0.5 (≈ 0.991 µM) | 4 (≈ 7.93 µM) | N#Cc1cc(OC2CNC2)cc2c1CC(CNCCC1CN(c3ccc4c(n3)NC(=O)CO4)C(=O)O1)C2 (stereo unspecified) | < 1 | inhibition at 10 µM [22]: < 1%; IC20 [23]: > 10 µM; IC50 [24]: > 20 µM |
| 2 (≈ 3.5 µM) | 0.5 (≈ 0.876 µM) | 2 (≈ 3.5 µM) | ≤ 0.06 | 1 (≈ 1.75 µM) | 0.5 (≈ 0.876 µM) | 16 (≈ 28 µM) | ≤ 0.06 | 4 (≈ 7.01 µM) | 4 (≈ 7.01 µM) | 16 (≈ 28 µM) | 16 (≈ 28 µM) | 0.032 | 1 (≈ 1.75 µM) | 0.026 | 0.25 (≈ 0.438 µM) | 4 (≈ 7.01 µM) | 1 (≈ 1.75 µM) | 4 (≈ 7.01 µM) | CS(=O)(=O)NCCOc1cc(C#N)c2c(c1)CC(CNCCC1CN(c3ccc4c(n3)NC(=O)CO4)C(=O)O1)C2 (stereo unspecified) | < 1 | inhibition at 10 µM [22]: 30%; IC20 [23]: 5.9 µM; IC50 [24]: > 20 µM |

The next lines start with the compound.

| Compound | MIC [1] [mg/L] | MIC [3] [mg/L] | MIC [4] [mg/L] | MIC [5] [mg/L] | MIC [6] [mg/L] | MIC [7] [mg/L] | MIC [8] [mg/L] | MIC [9] [mg/L] | MIC [10] [mg/L] | MIC [11] [mg/L] | MIC [12] [mg/L] | MIC [13] [mg/L] | IC50 [14] [µM] | MIC [15] [mg/L] | IC50 [16] [µM] | MIC [17] [mg/L] | MIC [18] [mg/L] | MIC [19] [mg/L] | MIC [20] [mg/L] | inhibition at 1 µM [21] [%] | also measured |
| --- | --- | --- | --- | --- | --- | --- | --- | --- | --- | --- | --- | --- | --- | --- | --- | --- | --- | --- | --- | --- | --- |
| CC(N)COc1cc(F)c2c(c1)CC(CCOCC1CN(c3cnc4c(n3)NC(=O)CO4)C(=O)O1)C2 (stereo unspecified) | 4 (≈ 7.98 µM) | 4 (≈ 7.98 µM) | 16 (≈ 31.9 µM) | ≤ 0.06 | 8 (≈ 16 µM) | 1 (≈ 1.99 µM) | 64 (≈ 128 µM) | 0.125 (≈ 0.249 µM) | 64 (≈ 128 µM) | 32 (≈ 63.8 µM) | 64 (≈ 128 µM) | 64 (≈ 128 µM) | 0.027 | 8 (≈ 16 µM) | 0.17 | 0.25 (≈ 0.498 µM) | 8 (≈ 16 µM) | 8 (≈ 16 µM) | 8 (≈ 16 µM) |  | logD [2]: 0.22 |
| O=C(CN1CCC1)Nc1cc(F)c2c(c1)CC(CNCCC1CN(c3cnc4c(n3)NC(=O)CO4)C(=O)O1)C2 (stereo unspecified) | 0.125 (≈ 0.232 µM) | ≤ 0.06 | 0.125 (≈ 0.232 µM) | ≤ 0.06 | 0.125 (≈ 0.232 µM) | 2 (≈ 3.71 µM) | 1 (≈ 1.85 µM) | ≤ 0.06 | 1 (≈ 1.85 µM) | 1 (≈ 1.85 µM) | 1 (≈ 1.85 µM) | 4 (≈ 7.41 µM) | 0.006 | 0.25 (≈ 0.463 µM) | 0.014 | 1 (≈ 1.85 µM) | 8 (≈ 14.8 µM) | 0.125 (≈ 0.232 µM) | 8 (≈ 14.8 µM) | < 1 | inhibition at 10 µM [22]: < 1%; IC20 [23]: > 10 µM; IC50 [24]: > 20 µM; remaining at 5 h [25]: 10% |
| CN(C)C(C)(C)C(=O)Nc1cc(F)c2c(c1)CC(CNCCC1CN(c3cnc4c(n3)NC(=O)CO4)C(=O)O1)C2 (stereo unspecified) | ≤ 0.06 | ≤ 0.06 | 0.25 (≈ 0.45 µM) | ≤ 0.06 | 0.125 (≈ 0.225 µM) | 0.25 (≈ 0.45 µM) | 2 (≈ 3.6 µM) | ≤ 0.06 | 4 (≈ 7.2 µM) | 4 (≈ 7.2 µM) | 4 (≈ 7.2 µM) | 4 (≈ 7.2 µM) | 0.013 | 1 (≈ 1.8 µM) | 0.043 | ≤ 0.06 | 2 (≈ 3.6 µM) | 0.25 (≈ 0.45 µM) | 4 (≈ 7.2 µM) | 5 | Stability [26]: Stable; inhibition at 10 µM [22]: 57%; IC20 [23]: 3 µM; IC50 [24]: 8.2 µM; Stability [27]: Stable; Stability [28]: Stable |
